Data published in US20190275052A1, “COMBINATION THERAPY OF AN HBV CAPSID ASSEMBLY INHIBITOR AND A NUCLEOS(T)IDE ANALOGUE” (Hoffmann-La Roche Inc., priority 2016, published 2019).
Read-outs that look alike come from different tables or passages of the source.

Columns and labels:
HBV [1] = assay: anti-HBV activity in HBV infected differentiated HepaRG cells (HBV DNA in supernatant by qPCR; checkerboard combination, isobologram model); type: cell-based, HBV (genotype D); conditions: Hepatitis B virus, 264 h, mean of 3 independent experiments
Experimental: HepG2.2.15 cells were cultured in DMEM+Glutamax I (Gibco, #21885) supplemented with 10% FBS, 1% Pen/Strep (Gibco, #15140) and G-418 (250 μg/mL) and used for production of infectious HBV (genotype D). 90% confluent cells from three T175 flasks were trypsinized and transferred into one collagen coated hyperflask (550 mL). Once the cells are confluent, medium was changed to DMEM+Glutamax I with 1% DMSO and 2.5% FBS. Once the cells were slightly over confluent, medium was changed to DMEM/F12+Glutamax I (Gibco, #31331) supplemented with MEM non-essential amino acids (6 mL, Gibco, #11140), Pen/Strep (6 mL), sodium pyruvate (6 mL), DMSO (9 mL) and FBS (10 mL) (all per 500 mL medium). Medium was changed every 3 days and supernatants were harvested for 2 weeks. Virus was concentrated from supernatants by PEG precipitation and the titer (genome equivalent (GE)/mL) was determined by qPCR. Briefly, supernatants were mixed with 40% PEG solution at a ratio of 4:1, incubated on a shaker at 4° C. overnight and then centrifuged using 50 mL falcon tubes at 4° C. for one hour at 3724 g (RCF). The supernatant was discarded and the centrifugation step was repeated with new supernatant reusing the tubes until all PEG-precipitated supernatant was processed. The pellets were re-suspended in William's E Medium (Gibco, #22551) at a concentration of 10^7-10^9 genome equivalents (GE) per mL and frozen at −80° C. DNA copy number calculation was based on a standard curve generated from HBV plasmid dilutions with known concentrations.
HepaRG cells (Biopredic International, Saint-Gregoire, France) were cultured in working growth medium (500 mL Willams E Medium with 50 mL HepaRG Growth supplement from Biopredic, 5 mL Glutamax-I (Gibco, #35050) and 5 mL Pen/Strep) for 2 weeks. After 2 weeks medium was changed to differentiation medium containing 1.8% DMSO (500 mL Willams E Medium with 50 mL HepaRG Growth supplement from Biopredic, 5 mL Pen/Strep, 5 mL Glutamax-I and 9 mL DMSO). Medium was changed twice a week up to 2 weeks. Once fully differentiated, cells were trypsinized and seeded into collagenated 96 well plates (50,000 cells/well in 100 μL) in differentiation medium. Cells were cultured at least 5 days in the 96 well plates before they were infected with HBV.
For HBV infection of differentiated HepaRG cells, differentiation medium was removed and new differentiation medium (120 μL/well) containing 4% PEG-8000 and virus stock (20 to 30 GE/cell) was added. Cells were cultured at 37° C. for 16 to 20 h before medium was removed, cells were washed 4 times with PBS and new differentiation medium (120 μL/well) was added.
At day 4 post infection, medium was removed and 100 μL new differentiation medium was added to each well. 3-fold serial dilutions (5 μL compound to 10 μL DMSO) of Drug A and Drug B were prepared in 100% DMSO starting with 15 μL undiluted compound solution (400-fold concentration of highest test concentration). 5 μL of drug A and B dilutions were then added to 990 μL medium (containing 0.8% DMSO) in a 96 deep well plate in a fashion according to the design shown in Table 3. 100 μL thereof were added to the HepaRG cells with a final DMSO concentration of 1.8%. Drug A tested was Compound 6; Drug B tested was Compound 1, Compound 2, Compound 3, Compound 4 or Compound 5. The concentration ranges tested were 1 nM to 0.01 nM for Compound 6, and 300 nM to 0.412 nM for Compound 1 to 5. Medium was replaced by new medium with compound at day 7 post infection and at day 11 post infection cell supernatants were harvested and directly used for HBV DNA extraction or stored at −20° C. Cell viability of the cells was determined using the cell viability assay described below.
HBV DNA from HepaRG cell supernatants was extracted using the MagNA Pure 96 (Roche) robot. 100 μL of the supernatants were mixed in a processing cartridge with 200 μL MagNA Pure 96 external lysis buffer (Roche, Cat. No. 06374913001) and incubated for 10 minutes. […]

HBV [2] = conditions: HBV infected transgenic or humanized mice; Deres 2003, Brezillon 2011; cited from earlier work
[3] = individual compound alone, from the combination studies, HBV DNA in supernatant day 11 post infection, read-out: EC50 ± SD (n) Drug A

In the case of `COC(=O)C1=C(CN2CCN3C(=O)N(CC(C)(C)C(=O)O)CC3C2)NC(c2nccs2)=N[C@H]1c1ccc(F)cc1Cl` (stereo in doubt) [Compound 5, 3-[(8aS)-7-[[(4R)-4-(2-chloro-4-fluoro-phenyl)-5-methoxycarbonyl-2-thiazol-2-yl-1,4-dihydropyrimidin-6-yl]methyl]-3-oxo-5,6,8,8a-tetrahydro-1H-imidazo[1,5-a]pyrazin-2-yl]-2,2-dimethyl-propanoic acid], the EC50 (HBV [1]; [3]) is reported as 24.8 nM.

For `COC(=O)C1=C(C)NC(c2ncc(F)cc2F)=N[C@H]1c1ccc(F)cc1Cl` [Bay 41-4109], the “in vivo efficacy (HBV DNA reduction)” value (HBV [2]) is listed as “demonstrated in vivo efficacy with HBV DNA reduction”.

In the case of `COC(=O)C1=C(CN2CCOC[C@H]2C(=O)O)NC(c2nccs2)=N[C@H]1c1ccc(F)cc1Cl` [Compound 1, (S)-4-[(R)-6-(2-Chloro-4-fluoro-phenyl)-5-methoxycarbonyl-2-thiazol-2-yl-3,6-dihydro-pyrimidin-4-ylmethyl]-morpholine-3-carboxylic acid], the EC50 (HBV [1]; [3]) is reported as 19.9 nM.

`CCOC(=O)C1=C(CN2CCN3C(=O)N(CC(C)(C)C(=O)O)C[C@@H]3C2)NC(c2nccs2)=N[C@H]1c1cccc(F)c1C` [Compound 2, 3-[(8aS)-7-[[(4S)-5-ethoxycarbonyl-4-(3-fluoro-2-methyl-phenyl)-2-thiazol-2-yl-1,4-dihydropyrimidin-6-yl]methyl]-3-oxo-5,6,8,8a-tetrahydro-1H-imidazo[1,5-a]pyrazin-2-yl]-2,2-dimethyl-propanoic acid] gave an EC50 (HBV [1]; [3]) of 5.8 nM.

Work on `CCOC(=O)C1=C(CN2CCN3C(=O)N(CC(C)(C)C(=O)O)C[C@@H]3C2)NC(c2nccs2)=N[C@H]1c1cccc(F)c1Cl` [Compound 3, 3-[(8aS)-7-[[(4R)-4-(2-chloro-3-fluoro-phenyl)-5-ethoxycarbonyl-2-thiazol-2-yl-1,4-dihydropyrimidin-6-yl]methyl]-3-oxo-5,6,8,8a-tetrahydro-1H-imidazo[1,5-a]pyrazin-2-yl]-2,2-dimethyl-propanoic acid] yielded an EC50 (HBV [1]; [3]) of 7.5 nM.

For `COC(=O)C1=C(CN2CCN3C(=O)N(CC(C)(C)CC(=O)O)C[C@@H]3C2)NC(c2nccs2)=N[C@H]1c1ccc(F)cc1Cl` [Compound 4, 4-[(8aS)-7-[[(4R)-4-(2-chloro-4-fluoro-phenyl)-5-methoxycarbonyl-2-thiazol-2-yl-1,4-dihydropyrimidin-6-yl]methyl]-3-oxo-5,6,8,8a-tetrahydro-1H-imidazo[1,5-a]pyrazin-2-yl]-3,3-dimethyl-butanoic acid], the EC50 (HBV [1]; [3]) was 16.2 nM.

With `C=C1[C@H](CO)[C@@H](O)C[C@@H]1n1cnc2c(=O)[nH]c(N)nc21` [Compound 6, Entecavir, reference compound] the EC50 (HBV [1]; Compound 6 alone, from the combination study with the Drug A of the same row, HBV DNA day 11 post infection, read-out: EC50 ± SD (n) Drug B) was 0.07 nM.
